Source: patent publication US11407736B2 (priority 2019, dated 2022)
Read-outs that look alike come from different tables or passages of the source.

Tests used:
RIPK1 = RIPK1 (Homo sapiens (Human), UniProt Q13546); assay: RIPK1 ADP-Glo biochemical kinase assay; conditions: read-out: RIPK1 ADP-Glo Kinase (IC50)
Description: The final reaction volume was 5.0ul.
Adding 5 μl of ADP-Glo™ terminated the reaction.

L929 cells = assay: L929 cell necroptosis assay (TNFa + zVAD, CellTiter-Glo); format: cell-based, murine; conditions: Mus musculus, TNFa + zVAD, read-out: L929-CTG-recovery, L929, TNFa + zVAD (IC50)
Procedure, shortened: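 Necroptosis was read as CellTiter-Glo luminescence 18 hours after TNFa stimulation at 37° C, 5% CO2. Prior to that, L929 cells (10K/well, plated 18 h) received fresh medium with 40 uM zVAD-fmk plus 4-fold serially diluted compound.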

U937 cells = assay: U937 cell necroptosis assay (TNFa + zVAD, CellTiter-Glo); format: cell-based, human; conditions: Homo sapiens, U-937, U937 cells, TNFa + zVAD; read-out: U937 Zvad TNF CTG Recovery, U937, TNFa + zVAD (IC50)
Procedure, shortened: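 Necroptosis was induced with TNFa at 2 ng/mL final for 18 h at 37 °C, following 1 h compound pre-incubation in the presence of zVAD-fmk (60 uM for U937 plating medium, 40 uM for L929 medium). Luminescent CellTiter-Glo signal gave relative cell survival.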

Sequence of RIPK1 (Q13546 whole entry, species assumed): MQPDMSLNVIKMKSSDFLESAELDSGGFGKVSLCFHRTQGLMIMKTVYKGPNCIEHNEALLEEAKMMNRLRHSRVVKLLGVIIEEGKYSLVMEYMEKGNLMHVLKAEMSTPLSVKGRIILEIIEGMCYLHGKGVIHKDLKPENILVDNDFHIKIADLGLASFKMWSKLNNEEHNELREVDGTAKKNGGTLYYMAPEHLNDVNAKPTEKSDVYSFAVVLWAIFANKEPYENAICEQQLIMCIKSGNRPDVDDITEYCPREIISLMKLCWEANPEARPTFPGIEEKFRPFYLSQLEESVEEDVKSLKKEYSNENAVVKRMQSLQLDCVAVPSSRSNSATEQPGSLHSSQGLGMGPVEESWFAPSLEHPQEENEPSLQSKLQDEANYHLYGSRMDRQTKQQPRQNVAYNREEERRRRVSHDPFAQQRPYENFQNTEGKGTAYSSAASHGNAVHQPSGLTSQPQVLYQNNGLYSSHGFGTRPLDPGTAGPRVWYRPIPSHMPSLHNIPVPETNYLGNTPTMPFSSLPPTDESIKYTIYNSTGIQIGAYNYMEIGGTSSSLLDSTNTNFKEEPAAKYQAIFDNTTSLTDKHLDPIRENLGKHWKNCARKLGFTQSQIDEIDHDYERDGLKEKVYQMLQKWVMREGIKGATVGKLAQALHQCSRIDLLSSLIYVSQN

Row | Compound | IC50 (RIPK1) | IC50 (L929 cells; L929, L929 cells) | IC50 (U937 cells) | IC50 (L929 cells; L929 cells)
1 | CN1C(=O)[C@@H](NC(=O)c2n[nH]c(Cc3ccccc3)n2)COc2ccc(C#CCCOc3cccc4ncccc34)cc21 [Compound I-45, (S)-5-benzyl-N-(5-methyl-4-oxo-7-(4-(quinolin-5-yloxy)but-1-yn-1-yl)-2,3,4,5-tetrahydrobenzo[b][1,4]oxazepin-3-yl)-1H-1,2,4-triazole-3-carboxamide] | 82.5 nM | 0.3 nM | 1.4 nM | –
2 | CN1C(=O)[C@@H](NC(=O)c2ncn(Cc3ccccc3)n2)COc2ccc(CN3CCn4c(nnc4C(F)(F)F)C3)cc21 [Compound I-46, (S)-1-benzyl-N-(5-methyl-4-oxo-7-((3-(trifluoromethyl)-5,6-dihydro-[1,2,4]triazolo[4,3-a]pyrazin-7(8H)-yl)methyl)-2,3,4,5-tetrahydrobenzo[b][1,4]oxazepin-3-yl)-1H-1,2,4-triazole-3-carboxamide] | 43.7 nM | 0.4 nM | 1.2 nM | –
3 | CN1C(=O)[C@@H](NC(=O)c2n[nH]c(Cc3ccccc3)n2)COc2ccc(CN3CCn4c(nnc4C(F)(F)F)C3)cc21 [Compound I-47, (S)-5-benzyl-N-(5-methyl-4-oxo-7-((3-(trifluoromethyl)-5,6-dihydro-[1,2,4]triazolo[4,3-a]pyrazin-7(8H)-yl)methyl)-2,3,4,5-tetrahydrobenzo[b][1,4]oxazepin-3-yl)-1H-1,2,4-triazole-3-carboxamide] | 68.3 nM | 1.5 nM | 4.6 nM | –
4 | CN1C(=O)[C@@H](NC(=O)c2ncn(Cc3ccccc3)n2)COc2ccc(C#CC(C)(C)C)cc21 [Compound I-48, (S)-1-benzyl-N-(7-(3,3-dimethylbut-1-yn-1-yl)-5-methyl-4-oxo-2,3,4,5-tetrahydrobenzo[b][1,4]oxazepin-3-yl)-1H-1,2,4-triazole-3-carboxamide] | 62.4 nM | – | 1.6 nM | 0.5 nM
5 | CN1C(=O)[C@@H](NC(=O)c2n[nH]c(Cc3ccccc3)n2)COc2ccc(C#CC(C)(C)C)cc21 [Compound I-49, (S)-5-benzyl-N-(7-(3,3-dimethylbut-1-yn-1-yl)-5-methyl-4-oxo-2,3,4,5-tetrahydrobenzo[b][1,4]oxazepin-3-yl)-1H-1,2,4-triazole-3-carboxamide] | 60.4 nM | 1.2 nM | 5 nM | –
6 | CN1C(=O)[C@@H](NC(=O)c2ncn(Cc3ccccc3)n2)COc2ccc(C#CC3(O)CCC3)cc21 [Compound I-50, (S)-1-benzyl-N-(7-((1-hydroxycyclobutyl)ethynyl)-5-methyl-4-oxo-2,3,4,5-tetrahydrobenzo[b][1,4]oxazepin-3-yl)-1H-1,2,4-triazole-3-carboxamide] | 23.4 nM | – | 1.1 nM | 0.3 nM
7 | C=C(C)C#Cc1ccc2c(c1)N(C)C(=O)[C@@H](NC(=O)c1n[nH]c(Cc3ccccc3)n1)CO2 [Compound I-59, (S)-5-benzyl-N-(5-methyl-7-(3-methylbut-3-en-1-yn-1-yl)-4-oxo-2,3,4,5-tetrahydrobenzo[b][1,4]oxazepin-3-yl)-1H-1,2,4-triazole-3-carboxamide] | 57.9 nM | 0.7 nM | 1.9 nM | –
8 | CC(C)CCc1ccc2c(c1)N(C)C(=O)[C@@H](NC(=O)c1n[nH]c(Cc3ccccc3)n1)CO2 [Compound I-60, (S)-5-benzyl-N-(7-isopentyl-5-methyl-4-oxo-2,3,4,5-tetrahydrobenzo[b][1,4]oxazepin-3-yl)-1H-1,2,4-triazole-3-carboxamide] | 64.4 nM | 2.4 nM | 4.8 nM | –
9 | COC(C)(C)C#Cc1ccc2c(c1)N(C)C(=O)[C@@H](NC(=O)c1n[nH]c(Cc3ccccc3)n1)CO2 [Compound I-61, (S)-5-benzyl-N-(7-(3-methoxy-3-methylbut-1-yn-1-yl)-5-methyl-4-oxo-2,3,4,5-tetrahydrobenzo[b][1,4]oxazepin-3-yl)-1H-1,2,4-triazole-3-carboxamide] | 65.4 nM | 1.3 nM | 3.4 nM | –

The next lines start with results.

Row | IC50 (RIPK1) | Compound | IC50 (L929 cells; L929, L929 cells) | IC50 (U937 cells) | IC50 (L929 cells; L929 cells)
10 | 24.9 nM | CN1C(=O)[C@@H](NC(=O)c2ncn(Cc3ccccc3)n2)COc2ccc(C#CC3(O)CCCC3)cc21 [Compound I-52, (S)-1-benzyl-N-(7-((1-hydroxycyclopentyl)ethynyl)-5-methyl-4-oxo-2,3,4,5-tetrahydrobenzo[b][1,4]oxazepin-3-yl)-1H-1,2,4-triazole-3-carboxamide] | 0.3 nM | 0.9 nM | –
11 | 34 nM | CN1C(=O)[C@@H](NC(=O)c2n[nH]c(Cc3ccccc3)n2)COc2ccc(C#CC3(O)CCCC3)cc21 [Compound I-53, (S)-5-benzyl-N-(7-((1-hydroxycyclopentyl)ethynyl)-5-methyl-4-oxo-2,3,4,5-tetrahydrobenzo[b][1,4]oxazepin-3-yl)-1H-1,2,4-triazole-3-carboxamide] | 0.5 nM | 1.8 nM | –
12 | 26.9 nM | CN1C(=O)[C@@H](NC(=O)c2ncn(Cc3ccccc3)n2)COc2ccc(C#CC3(O)CCOCC3)cc21 [Compound I-54, (S)-1-benzyl-N-(7-((4-hydroxytetrahydro-2H-pyran-4-yl)ethynyl)-5-methyl-4-oxo-2,3,4,5-tetrahydrobenzo[b][1,4]oxazepin-3-yl)-1H-1,2,4-triazole-3-carboxamide] | 0.3 nM | 0.9 nM | –
13 | 33.7 nM | CN1C(=O)[C@@H](NC(=O)c2n[nH]c(Cc3ccccc3)n2)COc2ccc(C#CC3(O)CCOCC3)cc21 [Compound I-55, (S)-5-benzyl-N-(7-((4-hydroxytetrahydro-2H-pyran-4-yl)ethynyl)-5-methyl-4-oxo-2,3,4,5-tetrahydrobenzo[b][1,4]oxazepin-3-yl)-1H-1,2,4-triazole-3-carboxamide] | 0.6 nM | 2 nM | –
14 | 21.5 nM | CN1C(=O)[C@@H](NC(=O)c2n[nH]c(Cc3ccccc3)n2)COc2ccc(C#CC3(O)COC3)cc21 [Compound I-57, (S)-5-benzyl-N-(7-((3-hydroxyoxetan-3-yl)ethynyl)-5-methyl-4-oxo-2,3,4,5-tetrahydrobenzo[b][1,4]oxazepin-3-yl)-1H-1,2,4-triazole-3-carboxamide] | 0.9 nM | 3 nM | –
15 | 11 nM | CN1C(=O)[C@@H](NC(=O)c2ncn(Cc3ccccc3)n2)COc2ccc(C#CC3(O)COC3)cc21 [Compound I-58, (S)-1-benzyl-N-(7-((3-hydroxyoxetan-3-yl)ethynyl)-5-methyl-4-oxo-2,3,4,5-tetrahydrobenzo[b][1,4]oxazepin-3-yl)-1H-1,2,4-triazole-3-carboxamide] | 0.2 nM | 0.8 nM | –
16 | 35.5 nM | CN1C(=O)[C@@H](NC(=O)c2ncn(Cc3ccccc3)n2)COc2cc(C#CC(C)(C)O)ccc21 [Compound I-62, (S)-1-benzyl-N-(8-(3-hydroxy-3-methylbut-1-yn-1-yl)-5-methyl-4-oxo-2,3,4,5-tetrahydrobenzo[b][1,4]oxazepin-3-yl)-1H-1,2,4-triazole-3-carboxamide] | 0.7 nM | 2 nM | –
17 | 30.3 nM | CN1C(=O)[C@@H](NC(=O)c2n[nH]c(Cc3ccccc3)n2)COc2cc(C#CC(C)(C)O)ccc21 [Compound I-63, (S)-5-benzyl-N-(8-(3-hydroxy-3-methylbut-1-yn-1-yl)-5-methyl-4-oxo-2,3,4,5-tetrahydrobenzo[b][1,4]oxazepin-3-yl)-1H-1,2,4-triazole-3-carboxamide] | 0.3 nM | 1 nM | –
